Where two headings read alike, the source gives them in different places.
Columns and labels:
[1] = target: T1, RORγ ligand binding domain (LBD) (Homo sapiens, UniProt P51449); assay: TR-FRET Activity Assay (ligand sensing, RORγ-LBD / coactivator peptide interaction, LANCE); assay type: biochemical
T1 construct: made in house; host or cells: E. coli BL-21 (BL3), vector pDEST15
T1 sequence (P51449 269-508 limits assumed): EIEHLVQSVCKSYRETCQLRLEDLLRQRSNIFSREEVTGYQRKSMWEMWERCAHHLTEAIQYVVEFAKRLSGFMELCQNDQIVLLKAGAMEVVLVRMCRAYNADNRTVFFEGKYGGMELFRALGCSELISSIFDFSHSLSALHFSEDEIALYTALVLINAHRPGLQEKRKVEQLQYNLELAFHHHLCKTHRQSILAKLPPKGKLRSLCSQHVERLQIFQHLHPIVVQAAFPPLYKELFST

RORγ = target: T2, RORγ (UniProt P51449); assay: RORγ Gal4 Reporter Gene Assay in 293T cells (firefly and renilla luciferase); assay type: cell-based, human
T2 sequence (P51449 1-518): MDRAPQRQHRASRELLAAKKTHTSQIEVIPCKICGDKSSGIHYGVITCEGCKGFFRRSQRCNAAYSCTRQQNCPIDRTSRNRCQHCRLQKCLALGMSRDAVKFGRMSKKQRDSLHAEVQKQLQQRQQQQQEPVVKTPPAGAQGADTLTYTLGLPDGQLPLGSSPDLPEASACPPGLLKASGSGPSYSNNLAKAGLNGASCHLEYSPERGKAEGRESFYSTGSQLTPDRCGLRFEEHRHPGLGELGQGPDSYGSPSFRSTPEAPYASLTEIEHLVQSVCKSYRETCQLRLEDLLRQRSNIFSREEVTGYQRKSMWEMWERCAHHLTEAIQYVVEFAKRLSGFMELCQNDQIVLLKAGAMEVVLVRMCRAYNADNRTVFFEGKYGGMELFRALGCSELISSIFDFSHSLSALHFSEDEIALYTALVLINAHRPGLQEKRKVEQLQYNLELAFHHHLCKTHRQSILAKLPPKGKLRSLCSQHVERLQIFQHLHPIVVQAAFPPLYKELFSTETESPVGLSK

[2] = first value of the cell FRET/FF/REN, TR-FRET activity assay, read-out: pIC50 (FRET) (converted)
[3] = second value of the cell, Gal4 reporter gene assay in 293T cells, firefly luciferase
[4] = third value of the cell, Gal4 reporter gene assay in 293T cells, renilla normalised luciferase

Row | Compound | IC50 [1, 2] | pIC50 (FF) (RORγ; [3]) | pIC50 (REN) (RORγ; [4]) | IC50 [1] | pIC50 (FF) (RORγ) | pIC50 (REN) (RORγ)
1 | Cc1c(C(=O)NCC(C)(C)C(N)=O)cc(-c2ccc(S(=O)(=O)NC(C)(C)C)c(C(F)F)c2)n1CC1CCCCC1 [17/128] | 200 nM | 8.0 | 8.0 | – | – | –
2 | Cc1c(C(=O)NCC2(O)CCOCC2)cc(-c2ccc(S(=O)(=O)NC(C)(C)C)c(C(F)F)c2)n1CC1CCCCC1 [17/129] | – | – | – | 200 nM | 6.7/8.0/8.0 | 6.7/8.0/8.0
3 | Cc1c(C(=O)NCCC(C)(C)C(=O)O)cc(-c2ccc(S(=O)(=O)NC(C)(C)C)c(C(F)F)c2)n1CC1CCCCC1 [17/130] | 251 nM | 7.5 | 7.6 | – | – | –
4 | Cc1c(C(=O)NC2CCOCC2)cc(-c2ccc(CC(=O)NC(C)(C)C)c(C(F)(F)F)c2)n1CC1CCCCC1 [17/131] | 501 nM | 6.8 | 6.9 | – | – | –
5 | Cc1c(C(=O)NC2CCOCC2)cc(-c2ccc(C(C)(C)C(=O)NC(C)(C)C)c(C(F)(F)F)c2)n1CC1CCCCC1 [17/132] | 3980 nM | 6.3 | 6.2 | – | – | –
6 | Cc1c(C(=O)NC2CCOCC2)cc(-c2ccc(S(=O)(=O)NC(C)(C)C)c(C(F)(F)F)c2)n1CC1CC(F)(F)C1 [17/133] | 1260 nM | 6.3 | 6.3 | – | – | –
7 | Cc1c(C(=O)NCC(C)(C)CC(=O)O)cc(-c2ccc(S(=O)(=O)NC(C)(C)C)c(C(F)(F)F)c2)n1CC1CCCCC1 [17/134] | 398 nM | 7.4 | 7.7 | – | – | –
8 | Cc1c(C(=O)NCCC(C)(C)C(N)=O)cc(-c2ccc(S(=O)(=O)NC(C)(C)C)c(C(F)(F)F)c2)n1CC1CCCCC1 [17/135] | 631 nM | 6.7 | 6.7 | – | – | –
9 | CNC(=O)C(C)(C)CCNC(=O)c1cc(-c2ccc(S(=O)(=O)NC(C)(C)C)c(C(F)(F)F)c2)n(CC2CCCCC2)c1C [17/136] | 794 nM | 6.6 | 6.7 | – | – | –
10 | Cc1c(C(=O)N2CCOC(C(=O)O)C2)cc(-c2ccc(S(=O)(=O)NC(C)(C)C)c(C(F)(F)F)c2)n1CC1CCCCC1 (stereo not drawn) [17/137] | 501 nM | < 4.7 | < 4.7 | – | – | –
11 | Cc1c(C(=O)N[C@@H]2CCCOC2)cc(-c2ccc(S(=O)(=O)NC(C)(C)C)c(C(F)(F)F)c2)n1CC1CCCCC1 [17/138] | 200 nM | 7.1 | 7.3 | – | – | –
12 | Cc1c(C(=O)N[C@H]2CCCOC2)cc(-c2ccc(S(=O)(=O)NC(C)(C)C)c(C(F)(F)F)c2)n1CC1CCCCC1 [17/139] | 158 nM | 7.2 | 7.4 | – | – | –
13 | Cc1c(C(=O)NC2CCOCC2)cc(-c2ccc(S(=O)(=O)NCC(F)(F)F)c(C(F)(F)F)c2)n1CC1CCCCC1 [17/140] | 200 nM | 8.0 | 8.1 | – | – | –
14 | Cc1c(C(=O)NC2CCOCC2)cc(-c2ccc(S(=O)(=O)N[C@@H](C)C(F)(F)F)c(C(F)(F)F)c2)n1CC1CCCCC1 [17/141] | 316 nM | 8.3 | 8.5 | – | – | –
15 | Cc1c(C(=O)NC2CCOCC2)cc(-c2ccc(S(=O)(=O)N[C@H](C)C(F)(F)F)c(C(F)(F)F)c2)n1CC1CCCCC1 [17/142] | 398 nM | 7.4 | 7.6 | – | – | –
16 | Cc1c(C(=O)NC2CCOCC2)cc(-c2ccc(S(=O)(=O)NC(C)(C)CC(F)(F)F)c(C(F)(F)F)c2)n1CC1CCCCC1 [17/143] | 126 nM | 8.2 | 8.2 | – | – | –
17 | Cc1c(C(=O)NC2CCOCC2)cc(-c2ccc(S(=O)(=O)NC3(C#N)CC3)c(C(F)(F)F)c2)n1CC1CCCCC1 [17/144] | 501 nM | 7.7 | 7.7 | – | – | –
18 | Cc1c(C(=O)NC2CCOCC2)cc(-c2ccc(S(=O)(=O)NC3(C)COC3)c(C(F)(F)F)c2)n1CC1CCCCC1 [17/145] | 631 nM | 7.6 | 7.7 | – | – | –
19 | Cc1c(C(=O)NC2CCOCC2)cc(-c2ccc(S(=O)(=O)NC(C)C(C)(C)O)c(C(F)(F)F)c2)n1CC1CCCCC1 (stereo not drawn) [17/146] | 1000 nM | 7.4 | 7.5 | – | – | –
20 | Cc1c(C(=O)NC2CCOCC2)cc(-c2ccc(S(=O)(=O)NCC3(C)COC3)c(C(F)(F)F)c2)n1CC1CCCCC1 [17/147] | 794 nM | 6.7 | 6.7 | – | – | –

Row | Compound | IC50 [1, 2] | pIC50 (FF) (RORγ; [3]) | pIC50 (REN) (RORγ; [4]) | IC50 [1] | pIC50 (FF) (RORγ) | pIC50 (REN) (RORγ)
21 | Cc1c(C(=O)NC2CCOCC2)cc(-c2cc(C(F)(F)F)c3c(c2)C(C)(C)C(=O)N3C)n1CC1CCCCC1 [17/148] | 794 nM | 7.0 | 7.0 | – | – | –
22 | Cc1c(C(=O)N[C@H]2C[C@H](C(=O)O)C2)cc(-c2cc(C(F)(F)F)c3c(c2)C(C)(C)C(=O)N3C)n1CC1CCCCC1 [17/149] | 1260 nM | 6.6 | 6.6 | – | – | –
23 | Cc1c(C(=O)NCCC(C)(C)C(=O)O)cc(-c2ccc(S(=O)(=O)N[C@@H](C)C(F)(F)F)c(C(F)(F)F)c2)n1CC1CCCCC1 [17/150] | 501 nM | 8.0 | 8.2 | – | – | –
24 | Cc1c(C(=O)NC2CCOCC2)cc(-c2ccc(S(=O)(=O)N[C@@H](C)C(F)(F)F)c(C(C)(C)C)c2)n1CC1CCCCC1 [17/151] | 316 nM | 8.3 | 8.3 | – | – | –
25 | Cc1c(C(=O)NCCC(C)(C)C(=O)O)cc(-c2ccc(S(=O)(=O)N[C@@H](C)C(F)(F)F)c(C(C)(C)C)c2)n1CC1CCCCC1 [17/152] | 1000 nM | 8.2 | 8.2 | – | – | –
26 | COC(=O)C(C)(C)CCNC(=O)c1cc(-c2cc(C(C)(C)C)cc(C3(C)CC3)c2)n(CC2CCCCC2)c1C [17/153] | 316 nM | 6.7 | 6.7 | – | – | –
27 | COC(=O)[C@H]1C[C@H](NC(=O)c2cc(-c3cc(C(C)(C)C)cc(C4(C)CC4)c3)n(CC3CCCCC3)c2C)C1 [17/154] | 316 nM | 7.2 | 7.3 | – | – | –
28 | Cc1c(C(=O)N[C@H]2C[C@H](C(=O)O)C2)cc(-c2cc(C(C)(C)C)cc(C3(O)CC3)c2)n1CC1CCCCC1 [17/155] | 631 nM | 7.0 | 7.0 | – | – | –
29 | Cc1c(C(=O)NC2CCOCC2)cc(-c2ccc(S(=O)(=O)NC(C)(C)C)c(Br)c2)n1CC1CCCCC1 [17/157] | 398 nM | 7.0 | 7.1 | – | – | –
30 | Cc1c(C(=O)NC2CCOCC2)cc(-c2ccc(S(=O)(=O)NC(C)(C)C)c(C#N)c2)n1CC1CCCCC1 [17/158] | 794 nM | 6.1 | 6.2 | – | – | –
31 | Cc1c(C(=O)NC2CCOCC2)cc(-c2cc(NCC(C)(C)C)nc(C(F)(F)F)c2)n1CC1CCCCC1 [17/159] | 1580 nM | 6.8 | 6.9 | – | – | –
32 | Cc1c(C(=O)NC2CCOCC2)cc(-c2ccc(S(=O)(=O)NC(C)(C)C(F)(F)F)c(C(F)(F)F)c2)n1CC1CCCCC1 [17/160] | – | – | – | 200 nM | 6.7/7.8/8.0 | 6.7/7.8/8.0
33 | Cc1c(C(=O)NCCC(C)(C)C(=O)O)cc(-c2ccc(S(=O)(=O)NC(C)(C)C(F)(F)F)c(C(F)(F)F)c2)n1CC1CCCCC1 [17/161] | 631 nM | 7.6 | 7.6 | – | – | –
34 | Cc1c(C(=O)NCC(C)(C)c2noc(=O)[nH]2)cc(-c2cc(C(C)(C)C)cc(C3(C)CC3)c2)n1CC1CCCCC1 [17/162] | 794 nM | 7.5 | 7.7 | – | – | –
35 | Cc1c(C(=O)NCCC(C)(C)C(=O)O)cc(-c2ccc(S(=O)(=O)NC(C)(C)C)c(C(C)(C)C)c2)n1CC1CCCCC1 [17/163] | 1580 nM | 7.0 | 7.2 | – | – | –
36 | COC1(c2cc(-c3cc(C(=O)NC4CCOCC4)c(C)n3CC3CCCCC3)ccc2S(=O)(=O)NC(C)(C)C)CC1 [17/164] | 1260 nM | 6.4 | 6.5 | – | – | –
37 | Cc1c(C(=O)NC2CCOCC2)cc(-c2ccc(S(=O)(=O)NC(C)(C)C)c(OCC(C)(C)C)c2)n1CC1CCCCC1 [17/165] | – | – | – | 5010 nM | 5.3/6.5/6.9 | 5.3/6.5/6.9
38 | Cc1c(C(=O)NC2CCOCC2)cc(-c2ccc(S(=O)(=O)NC(C)(C)C)c(OC(F)(F)F)c2)n1CC1CCCCC1 [17/166] | 158 nM | 7.8 | 8.0 | – | – | –
39 | Cc1c(C(=O)NCCC(C)(C)C(=O)O)cc(-c2ccc(S(=O)(=O)NC(C)(C)C)c(OC(F)F)c2)n1CC1CCCCC1 [17/167] | 794 nM | 6.6 | 6.8 | – | – | –
40 | CC(C)(C)NS(=O)(=O)c1ccc(-c2cc(C(=O)NCCC(C)(C)C(=O)O)c(C(N)=O)n2CC2CCCCC2)cc1C(F)(F)F [17/169] | 794 nM | 6.7 | 6.7 | – | – | –

Reference: patent publication US9815851B2, “Pyrrolo carboxamides as modulators of orphan nuclear receptor RAR-related orphan receptor-gamma (RORγ, NR1F3) activity and for the treatment of chronic inflammatory and autoimmune diseases” (PHENEX PHARMACEUTICALS AG, priority 2011, dated 2017)
